A value given as a limit tells only on which side of the number the result lay.

For 22 compounds, IC50 results are on record in US11365204B2, “Substituted dihydrothienopyrimidines and their use as phosphodiesterase inhibitors” (UNION therapeutics A/S, priority 2017, dated 2022).

For assay [1], the target named is human PDE4D catalytic domain (UniProt no. Q08499 [S380-L740]) (Homo sapiens (Human), UniProt Q08499). Put plainly: PDE4 assay (TR-FRET, cAMP hydrolysis). Conditions: read-out: PDE4 IC50 range. It counts as biochemical. The procedure:
The human PDE4D catalytic domain (UniProt no. Q08499 [S380-L740]) was incubated with a mixture of non-labelled cAMP (cyclic adenosine monophosphate) and fluorescein amidite (FAM) conjugated cAMP and titrated test or reference compound.
Following brief incubation the enzymatic reaction was stopped by addition of binding buffer containing nanoparticles with immobilized trivalent metal ions capable of binding 1) AMP phospho groups and 2) terbium (Tb) donor fluorophores. Subsequent excitation of the Tb donor triggered time-resolved FRET to adjacent FAM acceptor molecules resulting in light emission. In the presence of a PDE4 inhibitor, AMP generation was reduced resulting in a lower fluorescence signal. The cAMP phosphodiester is not bound by the detection system.
Results were expressed as IC50 values (nM) calculated from inhibition curves where the TR-FRET signal was normalized to Tb fluorescence intensity and the negative (DMSO vehicle) and positive (10 microM a PDE4 inhibitor reference compound) controls.
A general note: Time-resolved FRET reads energy transfer from a long-lived donor to a nearby acceptor.

The test system of assay [2] is Human peripheral blood mononuclear cells (PBMC). Put plainly: TNF-α release from LPS-stimulated PBMC. Conditions: Lipopolysaccharide 1 microg/ml, 18 hours, AlphaLISA, read-out: TNF-α IC50 range. Type of assay: cell-based. The procedure:
Human peripheral blood mononuclear cells (PBMC) were isolated from fresh buffy coats by density centrifugation using lymphoprep tubes (Medinor). Frozen PBMC's were washed in serum free assay buffer (RPMI1640 with 25 mM HEPES, 1% pen/strep, […] L glutamine, 0.5% human serum albumin) and living cells counted. Lipopolysaccharide (1 microg/ml; SIGMA) was added to the cells which were then transferred to 384 well tissue culture plates ([…]) containing titrated test compounds. The cells were incubated for 18 hours at 37° C. in serum free assay buffer and the level of TNFalpha in the supernatant was quantitated by AlphaLISA (PerkinElmer) by measuring fluorescence intensity at 615 nm.
Results were expressed as IC50 values calculated from inhibition curves using as controls the secretion in LPS stimulated wells and the secretion in cells incubated with 10 microM of a PDE4 inhibitor reference compound.
A general note: Bead proximity is the source of the signal in Alpha formats.

Chain of human PDE4D catalytic domain (Q08499 380-740): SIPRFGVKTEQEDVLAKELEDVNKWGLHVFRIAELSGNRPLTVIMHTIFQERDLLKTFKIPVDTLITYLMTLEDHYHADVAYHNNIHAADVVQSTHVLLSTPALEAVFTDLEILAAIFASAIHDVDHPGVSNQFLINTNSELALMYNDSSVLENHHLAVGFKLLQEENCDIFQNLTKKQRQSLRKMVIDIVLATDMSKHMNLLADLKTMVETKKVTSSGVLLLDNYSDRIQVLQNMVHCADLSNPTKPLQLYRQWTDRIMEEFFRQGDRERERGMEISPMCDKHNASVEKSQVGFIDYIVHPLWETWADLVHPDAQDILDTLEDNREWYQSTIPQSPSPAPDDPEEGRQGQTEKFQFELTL

In general, IC50 refers to the concentration that gives 50% inhibition. Regarding `CN(c1nc(N2CC(OC(=O)c3cn(C)cn3)C2)nc2c1[S+]([O-])CC2)C1CCOCC1` (centres unmarked) [Example 19, [1-[4-[methyl(tetra-hydropyran-4-yl)amino]-5-oxido-6,7-dihydro-thieno[3,2-d]pyrimidin-5-ium-2-yl]azetidin-3-yl] 1-methylimidazole-4-carboxylate], the IC50 in assay [1] and in assay [2] was less than 100 nM in each case.

As for `Cc1nc(C(=O)OC2CN(c3nc4c(c(N(C)C5CCOCC5)n3)[S+]([O-])CC4)C2)co1` (centres unmarked) [Example 20, [1-[4-[methyl(tetra-hydropyran-4-yl)amino]-5-oxido-6,7-dihydro-thieno[3,2-d]pyrimidin-5-ium-2-yl]azetidin-3-yl] 2-methyloxazole-4-carboxylate], the IC50 in assay [1] and in assay [2] was less than 100 nM each time.

Consider `Cc1ncc(C(=O)OC2CN(c3nc4c(c(N(C)C5CCOCC5)n3)[S+]([O-])CC4)C2)o1` (centres unmarked) [Example 21, [1-[4-[methyl(tetra-hydropyran-4-yl)amino]-5-oxido-6,7-dihydro-thieno[3,2-d]pyrimidin-5-ium-2-yl]azetidin-3-yl] 2-methyloxazole-5-carboxylate], for which the concentration for half-maximal inhibition (IC50) in assay [1] and in assay [2] was less than 100 nM throughout.

For the compound `CN(c1nc(N2CC(OC(=O)c3ccns3)C2)nc2c1[S+]([O-])CC2)C1CCOCC1` (centres unmarked) [Example 22, [1-[4-[methyl(tetra-hydropyran-4-yl)amino]-5-oxido-6,7-dihydro-thieno[3,2-d]pyrimidin-5-ium-2-yl]azetidin-3-yl] isothiazole-5-carboxylate], the IC50 in assay [1] and in assay [2] was less than 100 nM in each case.

Turning to `CN(c1nc(N2CC(OC(=O)C3CCOCC3)C2)nc2c1[S+]([O-])CC2)C1CCOCC1` (centres unmarked) [Example 23, [1-[4-[methyl(tetra-hydropyran-4-yl)amino]-5-oxido-6,7-dihydro-thieno[3,2-d]pyrimidin-5-ium-2-yl]azetidin-3-yl] tetrahydropyran-4-carboxylate], the IC50 in assay [1] and in assay [2] was less than 100 nM throughout.

As for `Cc1ccccc1C(=O)OC1CN(c2nc3c(c(N(C)C4CCOCC4)n2)[S+]([O-])CC3)C1` (centres unmarked) [Example 24, [1-[4-[methyl(tetra-hydropyran-4-yl)amino]-5-oxido-6,7-dihydro-thieno[3,2-d]pyrimidin-5-ium-2-yl]azetidin-3-yl] 2-methylbenzoate], the IC50 in assay [1] and in assay [2] was less than 100 nM each time.

As for `Cc1cccc(C(=O)OC2CN(c3nc4c(c(N(C)C5CCOCC5)n3)[S+]([O-])CC4)C2)c1` (centres unmarked) [Example 25, [1-[4-[methyl(tetra-hydropyran-4-yl)amino]-5-oxido-6,7-dihydro-thieno[3,2-d]pyrimidin-5-ium-2-yl]azetidin-3-yl] 3-methylbenzoate], the IC50 in assay [1] and in assay [2] was less than 100 nM throughout.

With `Cc1ccc(C(=O)OC2CN(c3nc4c(c(N(C)C5CCOCC5)n3)[S+]([O-])CC4)C2)cc1` (centres unmarked) [Example 26, [1-[4-[methyl(tetra-hydropyran-4-yl)amino]-5-oxido-6,7-dihydro-thieno[3,2-d]pyrimidin-5-ium-2-yl]azetidin-3-yl] 4-methylbenzoate], the IC50 in assay [1] and in assay [2] was less than 100 nM throughout.

In the case of `Cc1ncc(C(=O)OC2CN(c3nc4c(c(N(C)C5CCOCC5)n3)[S+]([O-])CC4)C2)cn1` (centres unmarked) [Example 27, [1-[4-[methyl(tetra-hydropyran-4-yl)amino]-5-oxido-6,7-dihydro-thieno[3,2-d]pyrimidin-5-ium-2-yl]azetidin-3-yl] 2-methylpyrimidine-5-carboxylate], the IC50 in assay [1] and in assay [2] was less than 100 nM each time.

Turning to `CN(c1nc(N2CC(OC(=O)c3ccc(F)cc3)C2)nc2c1[S+]([O-])CC2)C1CCOCC1` (centres unmarked) [Example 28, [1-[4-[methyl(tetra-hydropyran-4-yl)amino]-5-oxido-6,7-dihydro-thieno[3,2-d]pyrimidin-5-ium-2-yl]azetidin-3-yl] 4-fluorobenzoate], the IC50 in assay [1] and in assay [2] was less than 100 nM each time.

In the case of `CN(c1nc(N2CC(OC(=O)c3ccccc3F)C2)nc2c1[S+]([O-])CC2)C1CCOCC1` (centres unmarked) [Example 29, [1-[4-[methyl(tetra-hydropyran-4-yl)amino]-5-oxido-6,7-dihydro-thieno[3,2-d]pyrimidin-5-ium-2-yl]azetidin-3-yl] 2-fluorobenzoate], the IC50 in assay [1] and in assay [2] was less than 100 nM throughout.

Regarding `CCn1ccc(C(=O)OC2CN(c3nc4c(c(N(C)C5CCOCC5)n3)[S+]([O-])CC4)C2)n1` (centres unmarked) [Example 30, [1-[4-[methyl(tetra-hydropyran-4-yl)amino]-5-oxido-6,7-dihydro-thieno[3,2-d]pyrimidin-5-ium-2-yl]azetidin-3-yl] 1-ethylpyrazole-3-carboxylate], the IC50 in assay [1] and in assay [2] was less than 100 nM each time.

Regarding `Cc1cc(C(=O)OC2CN(c3nc4c(c(N(C)C5CCOCC5)n3)[S+]([O-])CC4)C2)nn1C` (centres unmarked) [Example 31, [1-[4-[methyl(tetra-hydropyran-4-yl)amino]-5-oxido-6,7-dihydro-thieno[3,2-d]pyrimidin-5-ium-2-yl]azetidin-3-yl] l,5-dimethylpyrazole-3-carboxylate], the IC50 in assay [1] and in assay [2] was less than 100 nM in each case.

In the case of `CCn1cc(C(=O)OC2CN(c3nc4c(c(N(C)C5CCOCC5)n3)[S+]([O-])CC4)C2)cn1` (centres unmarked) [Example 32, [1-[4-[methyl(tetra-hydropyran-4-yl)amino]-5-oxido-6,7-dihydro-thieno[3,2-d]pyrimidin-5-ium-2-yl]azetidin-3-yl] 1-ethylpyrazole-4-carboxylate], the IC50 in assay [1] and in assay [2] was less than 100 nM in each case.

As to `CCc1nc(C(=O)OC2CN(c3nc4c(c(N(C)C5CCOCC5)n3)[S+]([O-])CC4)C2)co1` (centres unmarked) [Example 33, [1-[4-[methyl(tetra-hydropyran-4-yl)amino]-5-oxido-6,7-dihydro-thieno[3,2-d]pyrimidin-5-ium-2-yl]azetidin-3-yl] 2-ethyloxazole-4-carboxylate], the IC50 in assay [1] and in assay [2] was less than 100 nM each time.

Regarding `Cc1cc(C(=O)OC2CN(c3nc4c(c(N(C)C5CCOCC5)n3)[S+]([O-])CC4)C2)sn1` (centres unmarked) [Example 34, [1-[4-[methyl(tetra-hydropyran-4-yl)amino]-5-oxido-6,7-dihydro-thieno[3,2-d]pyrimidin-5-ium-2-yl]azetidin-3-yl] 3-methylisothiazole-5-carboxylate], the IC50 in assay [1] and in assay [2] was less than 100 nM each time.

Take `Cc1nc(C(=O)OC2CN(c3nc4c(c(N(C)C5CCOCC5)n3)[S+]([O-])CC4)C2)cs1` (centres unmarked) [Example 35, [1-[4-[methyl(tetra-hydropyran-4-yl)amino]-5-oxido-6,7-dihydro-thieno[3,2-d]pyrimidin-5-ium-2-yl]azetidin-3-yl] 2-methylthiazole-4-carboxylate]: the IC50 in assay [1] and in assay [2] was less than 100 nM in each case.

In the case of `Cc1ncc(C(=O)OC2CN(c3nc4c(c(N(C)C5CCOCC5)n3)[S+]([O-])CC4)C2)s1` (centres unmarked) [Example 36, [1-[4-[methyl(tetra-hydropyran-4-yl)amino]-5-oxido-6,7-dihydro-thieno[3,2-d]pyrimidin-5-ium-2-yl]azetidin-3-yl] 2-methylthiazole-5-carboxylate], the IC50 in assay [1] and in assay [2] was less than 100 nM each time.

For the compound `CN(c1nc(N2CC(OC(=O)[C@H]3CC[C@@H](O)CC3)C2)nc2c1[S+](O)CC2)C1CCOCC1` (some centres unmarked) [Example 37, [1-[4-[methyl(tetra-hydropyran-4-yl)amino]-5-oxido-6,7-dihydro-thieno[3,2-d]pyrimidin-5-ium-2-yl]azetidin-3-yl] 4-hydroxycyclohexane-carboxylate], the 50% inhibitory concentration (IC50) in assay [1] and in assay [2] was less than 100 nM each time.

`CN(c1nc(N2CC(OC(=O)[C@H]3CC[C@@H](O)CC3)C2)nc2c1[S+](O)CC2)C1CCOCC1` (some centres unmarked) [Example 38, [1-[4-[methyl(tetra-hydropyran-4-yl)amino]-5-oxido-6,7-dihydro-thieno[3,2-d]pyrimidin-5-ium-2-yl]azetidin-3-yl] 4-hydroxycyclohexane-carboxylate]: the IC50 in assay [1] and in assay [2] was less than 100 nM throughout.

Take `CN(c1nc(N2CC(OC(=O)[C@H]3CC[C@H](O)CC3)C2)nc2c1[S+](O)CC2)C1CCOCC1` (some centres unmarked) [Example 39, [1-[4-[methyl(tetra-hydropyran-4-yl)amino]-5-oxido-6,7-dihydro-thieno[3,2-d]pyrimidin-5-ium-2-yl]azetidin-3-yl] 4-hydroxycyclohexane-carboxylate]: the half-inhibitory concentration (IC50) in assay [1] and in assay [2] was less than 100 nM in each case.

Regarding `CN(c1nc(N2CC(OC(=O)C3CCSCC3)C2)nc2c1[S+](O)CC2)C1CCOCC1` (centres unmarked) [Example 40, [1-[4-[methyl(tetra-hydropyran-4-yl)amino]-5-oxido-6,7-dihydro-thieno[3,2-d]pyrimidin-5-ium-2-yl]azetidin-3-yl] tetrahydrothiopyran-4-carboxylate], the IC50 in assay [1] and in assay [2] was less than 100 nM throughout.
